Reference: patent US5663145A, “Products for administering an initial high dose of Cetrorelix and producing a combination package for use when treating diseases” (ASTA Medica Aktiengesellschaft, priority 1993, dated 1997)
Non-standard residues stand in square brackets, D forms with d. Residues, ends and D or L forms follow the SMILES beside them. dPhe(4-Cl) = N[C@H](Cc1ccc(Cl)cc1)C(=O)O; d2Nal = N[C@H](Cc1ccc2ccccc2c1)C(=O)O; dCit = NC(=O)NCCC[C@@H](N)C(=O)O; d3Pal = N[C@H](Cc1cccnc1)C(=O)O

Legend:
[1] = test system: DMBA-induced mammary cancers; assay: DMBA-induced mammary cancers in rats; type: in vivo; details: initial high dose and a further dose which is not active when administered on its own
hormone concentration = assay: clinical trials, daily dose of 10 mg, suppression of hormone concentration; type: in vivo, human; details: daily dose of 10 mg
Excerpt: This high daily dose cannot be applied in slow-release forms which are intended to act over a long period of time, for example several months. The depot injected under the skin would be too voluminous and would no longer be acceptable. Therefore there is the object of providing a product for reliable and acceptable application.

LH, FSH and testosterone = assay: trial in humans over three weeks, initial dose plus maintenance doses, suppression of LH, FSH and testosterone; type: in vivo
Experimental: This surprising observation in animals was also confirmed in humans. […] The trial was performed over three weeks.

SMILES: CC(=O)N[C@H](Cc1ccc2ccccc2c1)C(=O)N[C@H](Cc1ccc(Cl)cc1)C(=O)N[C@H](Cc1cccnc1)C(=O)N[C@@H](CO)C(=O)N[C@@H](Cc1ccc(O)cc1)C(=O)N[C@H](CCCNC(N)=O)C(=O)N[C@@H](CC(C)C)C(=O)N[C@@H](CCCNC(=N)N)C(=O)N1CCC[C@H]1C(=O)N[C@H](C)C(N)=O [Cetrorelix] (Ac-[d2Nal][dPhe(4-Cl)][d3Pal]SY[dCit]LRP[dA]-NH2)
- treatment of DMBA-induced mammary cancers [1]: successful treatment
- suppression of the hormone concentration (hormone concentration): complete suppression of the hormone concentration to castration level
- suppression of LH, FSH and testosterone under maintenance doses after initial dose (LH, FSH and testosterone; after 10 mg initial dose, maintenance 1 mg every 12 hours, 2 mg every 24 hours or 1 mg every 24 hours, three weeks): suppression of LH, FSH and testosterone was maintained
- suppression of LH, FSH and testosterone after initial dose (LH, FSH and testosterone; injection of an initial dose of 10 mg): led to suppression of LH, FSH and testosterone
- suppression of LH, FSH and testosterone with maintenance doses on their own (LH, FSH and testosterone; maintenance doses (1 mg every 12 hours, 2 mg every 24 hours, 1 mg every 24 hours) applied on their own, no initial dose): suppression of LH, FSH and testosterone is not achieved
